One data set concerns gastro-intestinal mucosa. Particulars: cited from earlier work.
Another data set can be described thus: Solubility. It counts as physicochemical.
A further data set in a line: pH of aqueous solution. It is filed as physicochemical.
The nature of the next data set: Stability. To be noted: salt or its aqueous solution.
In data set [1] the test system is patients with degenerative osteoarticular affections. In words: Clinical trial, i.m. 500 mg/day, efficacy in degenerative osteoarticular diseases. It counts as in vivo, human. From the text:
In a subsequent clinical trial, 33 human subjects were used with an average age of 73.8±6.8, the minimum age being 61 and the maximum age 88; 7 of the subjects were males and the remaining 26 were female.
These subjects presented osteoarticular diseases of a chronic or subacute type, in which, during the period of observation, an evolutive flare-up of a pre-existing mono- or polyarticular arthrosic process was verified, as well as the appearance ex novo of an arthralgic picture with functional impotence of the osteoarticular segments which previously appeared to be undamaged.
In these cases, the parenteral route of administration was used so as to obtain, in view of the watersoluble characteristics of the test material, a more rapid symptomatic control. Furthermore, this method of administration permits a ready control of any differences in gastric tolerance as compared with the oral administration route, which is more commonly used.
The test substance was injected in the morning between 8 and 8.30 a.m. Before starting the therapy, midway through it and immediately after it, the following parameters were controlled in order to ascertain how effective the treatment had been: Lansbury's dynamometer (the values of muscular strength were expressed in kg.); the range of articular flexion and extension (the basal finding was expressed conventionally with the notations "+" to "+++," the successive findings being assessed as "unchanged," "increased" or "decreased," compared with the pre-treatment findings; subjective algesic symptomatology, the criteria of evaluation being similar to those adopted for determining the range of articular flexion and extension; finger tip-floor distance test, obtained by measuring the distance between the tips of the fingers and the floor when the subject bends forward; and morning stiffness, this being the time taken for the disappearance of stiffness on awakening.
Thus, for the evaluation of the test substance, it was thus possible to have 3 quantitative parameters (morning stiffness, Lansbury's index and finger tip-floor distance) and 2 semiquantitative parameters (pain symptomatology and flexo-extension strength). This is sufficient to obtain a reliable therapeutic profile in the test subjects, where the subjective element plays a predominant role in determining the clinical picture, as well as the therapeutic response.
The numerical data obtained were analysed statistically by means of the calculation of the Student "t" test on the mean values found before and after treatment.

Another data set deals with occult blood in faeces. Kind of data set: Occult blood in faeces (benzidine test). It is filed as in vivo, human. On the procedure:
In cases with a history of gastroenteric disorders, even if not drug-dependent, the faeces were tested for the presence of occult blood, using the benzidine test.

The conditions of data set [2]: total mean values, especially during the first 3 hours.
The test system of data set [3] is carrageenin oedema, inflamed paw. In words: Carrageenin oedema of the rat paw (anti-inflammatory action, paw size/volume). To be noted: Table 2, 100 mg/kg p.o. (lysine salt: 60 as active substance). It is filed as in vivo, male Wistar rats. (In the carrageenan paw model, swelling and tenderness develop within hours.)
The subject of data set [4] is pain threshold in the inflamed paw (carrageenin oedema). Kind of data set: Pain threshold under pressure of the inflamed (carrageenin) rat paw (analgesic action). To be noted: Table 3, 100 mg/kg p.o. (lysine salt: 60 as active substance).
Setting [5] is: of 18 cases with major initial involvement.
Where [6] appears, read: end of experiment, of 14 positive before treatment.

In brackets after ≈: the same amount, converted by molar mass. Several values for one entry are separate records, joined by “and”; a condition that tells them apart may be missing. Identical values can stand only once. Counter-ions that a name gives are not always drawn. Like-named read-outs stand apart in the source and are kept apart here.

Take `COc1ccc2c(c1)c(CC(=O)O)c(C)n2C(=O)c1ccc(Cl)cc1` [indomethacine]: the “Undesired side-effects (gastro-intestinal intolerance, ulceration) compared with phenyl-alkanoic acids” value with gastro-intestinal mucosa (known from the art) is recorded as “also show these undesired side-effects in an even more pronounced form”.
As for `CC(C)Cc1ccc(C(C)C(=O)O)cc1` (racemic) [Example 8, D,L-arginine salt of 2-(4-isobutylphenyl)-propionic acid], the “Solubility in water” value in the data set “Solubility” is “moderately soluble in water”. Further, the “pH of aqueous solution” value in “pH of aqueous solution” is “pH close to neutrality”.
With `CC(=O)Oc1ccccc1C(=O)O` [aspirin], the “Undesired side-effects (gastro-intestinal intolerance, ulceration) compared with phenyl-alkanoic acids” value in the data set with gastro-intestinal mucosa (in vivo) is “also show these undesired side-effects in an even more pronounced form”.
Regarding `CC(C)Cc1ccc(C(C)C(=O)O)cc1` (stereo not shown) [Example 9], the “Solubility in water” value in “Solubility” is recorded as “analogous to those of the product obtained in Example 8”. Moreover, the “pH of aqueous solution” value in “pH of aqueous solution” is recorded as “analogous to those of the product obtained in Example 8”.
On to `CC(C)Cc1ccc(CC(=O)O)cc1` [Example 14, D,L-arginine salt of 2-(4-isobutyl-phenyl)-acetic acid], for which, in the data set “Solubility”, the “Solubility in water” value was “moderately soluble in water”. For the same compound, the “pH of aqueous solution” value in “pH of aqueous solution” is “pH close to neutrality”. Also, the “Stability” value in “Stability” is “stable solution”.
For `CC(C)Cc1ccc(C(C)C(=O)O)cc1` (racemic) [Example 1], in [1] (33 patients, i.m. 500 mg/day), the “Cases with increase of flexo-extension strength” value is reported as 36.3%, the “Cases with spontaneous pain reduced following treatment” value is 27 cases and the “Cases with spontaneous pain reduced following treatment (%)” value was found to be 81.8%. Besides, the “Morning stiffness, mean after treatment” value in data set [1] (Table 7, after i.m. 500 mg/day, s.d. ± 8.2) is 18.93 min. Also, the “Morning stiffness, mean before treatment” value in [1] (Table 7, before treatment (baseline), s.d. ± 6.62) was 20.17 min. In addition, the “Lansbury test, mean before treatment” value in data set [1] (Table 7, before treatment (baseline), s.d. ± 9.19) worked out at 30.96 kg. Also, the “Fingertip-floor distance, mean before treatment” value in data set [1] (Table 7, before treatment (baseline), s.d. ± 12.4) was 33.17 cm. Moreover, the “Fingertip-floor distance, after treatment” value in [1] (Table 7, i.m. 500 mg/day, individual patients in order of case no. (cases 7, 8, 9, 14, 27-31, 33 not given), listed as lysine isobutylphenyl propionate) is 45 cm and 40 cm and 30 cm and 28 cm and 15 cm and 11 cm and 6 cm and 20 cm and 24 cm and 48 cm and 38 cm and 18 cm and 46 cm and 35 cm. Further, the “Morning stiffness, after treatment” value in [1] (Table 7, i.m. 500 mg/day, individual patients in order of case no. (cases 8, 9, 14, 26 not given), listed as lysine isobutylphenyl propionate) is 30 min and 10 min and 0 min and 8 min and 2 min and 12 min and 25 min and 15 min and 11 min and 5 min and 9 min and 23 min and 18 min and 22 min and 20 min. Moreover, the Radiologic changes result in data set [1] (after treatment vs before) is on record as “no radiologic changes”. Besides, in data set [1] (i.m. 500 mg/day), the “Lansbury test, pre- vs post-treatment mean values” is reported as “similar”; the “Overall safety and clinical efficacy” value was “safe and clinically effective”. In addition, in data set [1] (i.m. 500 mg/day, Student t test), the “P, difference between pre- and post-treatment duration of morning stiffness” value is less than 0.01. In addition, in [1] (i.m. 500 mg/day, of 33), the “Patients with "excellent" effect” value is recorded as 25 patients, the “Patients with "fair" result” value is 4 patients and the “Patients with "poor" or "nil" effect” value came out at 4 patients. In addition, in data set [1] (setting [5]), the “Patients with marked improvement of flexo-extension strength” value amounted to 10 patients and the “Patients with marked improvement of flexo-extension strength (%)” value turned out to be 55.5%. For the same compound, in the data set on occult blood in faeces (end of experiment), the “Anaemia in blood counts” value is given as “did not reveal any cases of anaemia which could be considered pathological or at the most suspect”. Further, in the data set with occult blood in faeces (setting [6]), the “Faecal occult blood: haematic loss disappeared” value is 1 case, the “Faecal occult blood: haematic loss reduced” value turned out to be 6 cases, the “Faecal occult blood: haematic loss slightly increased” value is on record as 2 cases and the “Faecal occult blood: haematic loss unchanged” value worked out at 5 cases. For the same compound, in the data set with occult blood in faeces (pretreatment (baseline)), the “Faecal occult blood positive in pretreatment phase” value is 14 subjects. Also, the solubility – broadly, the dissolved amount per volume that the medium holds – in the data set “Solubility” (in water) is approximately 400 mg/mL (≈ 1940 mM). Also, the “pH of aqueous solution” value in the data set “pH of aqueous solution” is “substantially neutral pH”. Moreover, the “Blood levels compared with oral sodium salt” value in [2] was “higher blood levels are always obtained, especially during the first 3 hours, than after the oral administration of the sodium salt”.
In the case of `CCCCC1C(=O)N(c2ccccc2)N(c2ccccc2)C1=O` [Phenyl-butazone, phenylbutazone], the “Paw volume - carrageenin oedema” value in [3] (0 hrs, control 1.16 ± 0.02) turned out to be 1.18 ± 0.02 mL; in data set [3] (4 hrs, control 2.29 ± 0.05, **p = 0.01), 1.75 ± 0.05 mL; in data set [3] (5 hrs, control 2.36 ± 0.06, **p = 0.01), 1.84 ± 0.05 mL. Further, the “Paw volume, % variation referred to control” value in data set [3] (3 hrs) is reported as -25.4%; in data set [3] (4 hrs), -23.6%; in [3] (5 hrs), -22.0%. In addition, in the data set with gastro-intestinal mucosa (known from the art), the “Undesired side-effects (gastro-intestinal intolerance, ulceration) compared with phenyl-alkanoic acids” value is given as “also show these undesired side-effects in an even more pronounced form”. Besides, the “Pain threshold - carrageenin oedema” value in data set [4] (0 hrs, control 101.7 ± 3.19) was determined as 105.3 ± 3.03 g; in data set [4] (3 hrs, control 52.7 ± 2.00, **p = 0.01), 122.7 ± 2.92 g; in data set [4] (5 hrs, control 51.3 ± 2.15, **p = 0.01), 83.7 ± 4.04 g.

The record behind these values is US4279926A, “Method of relieving pain and treating inflammatory conditions in warm-blooded animals” (priority 1974, dated 1981).
